Like-named read-outs stand apart in the source and are kept apart here.
What was measured:
[1] = tested on: LUC-transfected L. donovani; assay: Anti-leishmanial efficacy (EC50) in in vitro infected peritoneal macrophages; format: cell-based, Leishmania donovani; conditions: 48 h, read-out: Peritoneal Macrophages EC50 (mean±SE)
Experimental: Macrophages from uninfected hamsters were obtained by peritoneal lavage with DMEM (Gibco) and Heparin (2 units/ml; Elkins-Sinn, Cherry Hill NJ). The cells were washed twice by centrifugation and re-suspended in culture medium composed of DMEM, 5% FBS, 1 mM sodium pyruvate (Gibco), 1X MEM amino acids solution (Sigma), 0.02% v/v/EDTA and 10 mM HEPES buffer (Cellgro). The peritoneal macrophages were adjusted to 5×10^5 cells/ml and allowed to adhere overnight at 37°C and 5% CO2 in flat bottom 96-well plates. Adherent macrophages were infected at 1∶5 ratio (cells:parasites) with stationary phase LUC-transfected L. donovani promastigotes and cultured at 37°C, 5% CO2, for 2 h. The extracellular parasites were then removed by washing with warm Dulbeco's PBS (Gibco). Infected macrophages were exposed to 2-fold serial dilutions of test compounds as described above for the ex vivo culture system. The infected macrophages were incubated for 48 hr in 5% CO2 atmosphere at 37°C. The number of surviving parasites was determined by luminometry and the effective concentration (EC50) calculated by linear regression (GraphPad Prism 5.0) as described above for the ex vivo system. The mean and standard error of the EC50 from 3 different experiments were considered as the final EC50. […] Tilorone was obtained from Hangzhou Trylead Chemical Tech (China). All compounds were dissolved in sterile dimethyl sulfoxide (analytical grade, cell culture tested; Sigma) and stored frozen at −20°C until used.

[2] = tested on: luciferase-transfected Leishmania donovani; assay: Anti-leishmanial efficacy (EC50) in the ex vivo splenic explant model; format: cell-based
Experimental: To establish the plate assay for drug screening, the spleens from 2 infected hamsters were aseptically removed and placed in a Petri dish containing 5 mL of Collagenase D (Roche) at 2 mg/mL of buffer (10 mM Hepes pH 7.4, 150 mM NaCl, 5 mM KCl, 1 mM MgCl2, 1.8 mM CaCl2). The spleen was infiltrated by injection with approximately 2 mL of Collagenase solution, the tissue was cut into small pieces using sharp scissors, and incubated for 20 minutes at 37°C. The cell suspension and remaining tissue fragments were gently passed through a 100 µm cell strainer (B–D) to obtain a single cell suspension, which was washed twice by centrifugation (500 g for 7 min at 4°C) and re-suspended in culture medium composed of DMEM (Gibco), 5% FBS, 1 mM Sodium pyruvate (Gibco), 1X MEM amino acids solution (Sigma), 0.02% v/v/EDTA, 10 mM HEPES buffer (Cellgro) and 100 IU/mL Penicillin/100 […] Streptomycin solution (Cellgro).
The anti-leishmanial efficacy of the compounds was determined using the splenic explant model in a 96-well plate format. […] Because variation in the parasite burden between different explant cultures was expected, the concentration of cells used in each experiment was adjusted to give approximately 100 counts by luminometry (equivalent to ∼240,000 parasites). The number of surviving parasites was determined by luminometry as described above.

splenocytes [3] = assay: Flow cytometry of propidium iodide stained splenocytes cultured with test compound; conditions: 48 hr culture period, data not shown
[4] = Cell toxicity (CC50) in the HepG2 cell line, CellTiter-Glo; format: cell-based, human; conditions: human
Experimental: After 24 hours of culture at 37°C the number of viable cells was determined by quantification of the ATP present in the cell using the CellTiter-Glo luminescent Cell Viability Assay (Promega).

splenocytes [5] = tested on: splenocytes
Leishmania donovani = assay: Discrimination between amphotericin B treated and untreated splenic explant cultures at serial dilutions of cells; format: cell-based; conditions: AMB 0.126 µg/mL, 48 h; for Parasite counts, Treated (AMB): mean ± SD; for Reduction in parasite burden: with reference to controls
[6] = tested on: luciferase-transfected Leishmania donovani; assay: Primary screening of compound libraries in the ex vivo splenic explant model (Z score); format: cell-based; conditions: 10 µM; for Outcome of library screening (significant Z score / hit): compounds as included in the libraries
Source text: The following chemical libraries in 96-well plate format were screened: NINDS Custom Collection II (MicroSource Discovery Systems, Inc.), which consists of 1,040 classical therapeutic agents, established experimental inhibitors, receptor agonist drugs and other bioactive compounds [24], [25], [26]; the Pure Natural Products library (MicroSource Discovery Systems, Inc.) a collection of 800 pure natural products and derivatives; and The Diversity Set and Natural Products set (Developmental Therapeutics Program, NCI/NIH) a set of 2,195 compounds selected from the almost 140,000 compounds based on diversity of structure, [28], [29]. Libraries containing the compounds at 10 mM concentration in DMSO were diluted into master plates at 200 µM concentration in DMEM. The 200 µM master plates were further diluted by transferring an aliquot of 5 µl into a 96-well sterile white-bottom plate (Costar) containing 45 µl of culture medium at 4°C. Splenocytes (100,000 in 50 µl of culture medium) that had been obtained from infected hamsters as described above were added to the assay plate for a final drug concentration of 10 µM. The positive control (splenocytes treated with 0.2 µM Amphotericin B) and negative controls (0.1% DMSO vehicle) were distributed in the two outer columns (8 wells each) of each plate in alternating fashion to minimize any edge effect. After 48 hours of culture at 37°C in a humidified atmosphere and 5% CO2, the plates were centrifuged at 500 g for 7 min, the supernatant discarded using a multi- channel vacuum aspirator (Costar), and 20 µl of 1X cell culture lysis reagent (Promega) was added to the cells. To complete the lysis procedure the plates were frozen at −70°C and then thawed, and the luciferase activity determined in a plate luminometer following addition of 100 µl of the luciferin substrate at room temperature (Promega). The Z score was calculated for each compound as the mean counts of the compound tested minus the mean counts of all compounds in the plate divided by the SD all compounds in the plate. The mean Z score for each drug was calculated based on duplicate screenings performed in two different experiments. A Z score of ≤–1.96, which corresponds to a p value of ≤0.05 (95% confidence limit), was used as the threshold to identify the hits. […] The quality of each assay was determined by calculating the Z prime (Z') factor [31], which measures the discrimination between positive and negative controls in the screen. The Z' factor was calculated as 1 – [(3SD positive controls +3SD negative controls)/absolute value of (mean of the positive controls – mean of the negative controls)].

[7] = Leishmania donovani, Peritoneal macrophage, hamster peritoneal macrophages infected in vitro, luminometry, purchased compounds
[8] = Leishmania donovani, 48 h, 48 h of culture, luminometry, purchased compounds dissolved in DMSO, read-out: Ex vivo model EC50 (mean±SE)
[9] = Leishmania donovani, ex vivo splenic explant, 48 h, luminometry, at least two experiments, compound from screened library, read-out: Ex vivo model EC50 Mean

CCN(CC)CCOc1ccc2c(c1)C(=O)c1cc(OCCN(CC)CC)ccc1-2 [Tilorone]
EC50 [1, 7]: 1480 ± 350 nM | EC50 [2, 8]: 840 ± 470 nM | EC50 ([2]; Leishmania donovani, 48 h, ex vivo splenic explant, 48 h, luminometry, at least two experiments, compound from screened library, read-out: Ex vivo model EC50 Mean): 7700 nM | Splenocyte viability (splenocytes [3]): no loss of splenocyte viability | CC50 at 24 h ([4]; HepG2 cells, HepG2 cell line, 24 h, ATP luminescence, compound from screened library, read-out: HepG2 CC50 Mean): 46800 nM

C[C@@H]1[C@H](O)[C@@H](C)/C=C/C=C/C=C/C=C/C=C/C=C/C=C/[C@H](O[C@@H]2O[C@H](C)[C@@H](O)[C@H](N)[C@@H]2O)C[C@@H]2O[C@](O)(C[C@@H](O)C[C@@H](O)[C@H](O)CC[C@@H](O)C[C@@H](O)CC(=O)O[C@H]1C)C[C@H](O)[C@H]2C(=O)O [Amphotericin B]
EC50 [1, 7]: 110 ± 10 nM | EC50 [2, 8]: 90 ± 30 nM | EC50 ([2]; Leishmania donovani, ex vivo model, amphotericin B present in the library (in DMSO vehicle), read-out: EC50): 10700 ± 900 nM | Splenocyte viability (splenocytes [5]): no loss of splenocyte viability | Parasite counts, Treated (AMB) (Leishmania donovani; 3,125 cells per well): 0.1±0.1 photons/sec | Reduction in parasite burden (Leishmania donovani; 3,125 cells per well): 83.5% | Parasite counts, Treated (AMB) (Leishmania donovani; 6,250 cells per well): 0.2±0.0 photons/sec | Reduction in parasite burden (Leishmania donovani; 6,250 cells per well): 86.3% | Parasite counts, Treated (AMB) (Leishmania donovani; 12,500 cells per well): 0.4±0.3 photons/sec | Reduction in parasite burden (Leishmania donovani; 12,500 cells per well): 86.2% | Parasite counts, Treated (AMB) (Leishmania donovani; 25,000 cells per well): 0.7±0.0 photons/sec | Reduction in parasite burden (Leishmania donovani; 25,000 cells per well): 86.4% | Parasite counts, Treated (AMB) (Leishmania donovani; 50,000 cells per well): 2.5±0.5 photons/sec | Reduction in parasite burden (Leishmania donovani; 50,000 cells per well): 82.3% | Parasite counts, Treated (AMB) (Leishmania donovani; 100,000 cells per well): 8.5±0.2 photons/sec | Reduction in parasite burden (Leishmania donovani; 100,000 cells per well): 83.3% | Parasite counts, Treated (AMB) (Leishmania donovani; 200,000 cells per well): 34.8±3.7 photons/sec | Reduction in parasite burden (Leishmania donovani; 200,000 cells per well): 76.0% | CC50 at 24 h [4]: 104000 nM

CCCCCCCCCCCCCCCCOP(=O)([O-])OCC[N+](C)(C)C [Miltefosine]
Outcome of library screening (significant Z score / hit) [6]: did not show a significant Z score | EC50 [1, 7]: 2280 ± 210 nM | EC50 [2, 8]: 1020 ± 80 nM | EC50 ([2]; Leishmania donovani, ex vivo model, freshly solubilized compound from commercial source, read-out: EC50): 1000 nM | Anti-leishmanial activity, repeated testing ([2]; compound from the NCI chemical library): inactive

CNCCC=C1c2ccccc2CCc2ccccc21 [Nortriptyline]
EC50 [1, 7]: 2650 ± 350 nM | EC50 [2, 8]: 6030 ± 280 nM

CCN(CC)C(=S)SSC(=S)N(CC)CC [Disulfiram]
EC50 [1, 7]: 160 ± 30 nM | EC50 [2, 8]: 310 ± 30 nM | EC50 [2, 9]: 8100 nM | CC50 at 24 h [4]: 53000 nM

CCCCCC[C@H]1C(=O)O[C@H](C)[C@H](NC(=O)c2cccc(NC=O)c2O)C(=O)O[C@@H](C)[C@@H]1OC(=O)CC(C)C [ANTIMYCIN A]
EC50 ([1]; Leishmania donovani, Peritoneal macrophage, in Mesocricetus auratus): 1670 ± 1050 nM | EC50 ([2]; Leishmania donovani, 50% reduction in parasite counts in the ex vivo model, read-out: EC50 Mean (Table S2)): 11600 nM | EC50 ([2]; Leishmania donovani, 48 h of culture, luminometry, purchased compounds dissolved in DMSO, read-out: Ex vivo model EC50 (mean±SE)): 1270 ± 1070 nM | EC50 [2, 9]: 11600 nM | CC50 at 24 h ([4]; HepG2 cell line, 24 h, ATP luminescence, compound from screened library, read-out: HepG2 CC50 Mean): 58400 nM

Meglumine antimoniate
EC50 ([1]; hamster peritoneal macrophages infected in vitro, luminometry, purchased compounds): 146000 ± 42000 nM | EC50 ([2]; 48 h of culture, luminometry, purchased compounds dissolved in DMSO, read-out: Ex vivo model EC50 (mean±SE)): 270000 ± 57500 nM

N=C(N)c1ccc(OCCCCCOc2ccc(C(=N)N)cc2)cc1 [Pentamidine]
Z score ([6]; 48 h, duplicate screen, hit threshold -1.96): −1.87 | Outcome of library screening (significant Z score / hit) [6]: did not show a significant Z score | EC50 [1, 7]: 890 ± 370 nM | EC50 [2, 8]: 3020 ± 340 nM | EC50 ([2]; Leishmania donovani, Splenocyte, ex vivo splenocytes system, read-out: EC50): 3000 nM

CC[C@@]1([C@@H]2O[C@@H]([C@H]3O[C@@](O)(CO)[C@H](C)C[C@@H]3C)C[C@@H]2C)CC[C@H]([C@]2(C)CC[C@]3(C[C@H](O)[C@@H](C)[C@@H]([C@@H](C)[C@@H](OC)[C@H](C)C(=O)O)O3)O2)O1 [Monensin A]
EC50 [1, 7]: 230 ± 150 nM | EC50 [2, 8]: 850 ± 680 nM

OC(Cn1cncn1)(Cn1cncn1)c1ccc(F)cc1F [Fluconazole]
Outcome of library screening (significant Z score / hit) [6]: did not show a significant Z score | EC50 [1, 7]: > 250000 nM | EC50 [2, 8]: > 250000 nM | Activity in the ex vivo system (screen or EC50 determination) ([2]; transgenic L. donovani, ex vivo system): no activity
